Paper PMC4048165, “Reaction Kinetics for the Biocatalytic Conversion of Phenazine-1-Carboxylic Acid to 2-Hydroxyphenazine” (PLoS ONE, 2014)

Target: T1, PhzO (Pseudomonas chlororaphis, UniProt E3UVD3)
T1 construct: full-length phzO (1476-bp PCR fragment, about 491 residues) in pET28a, 6-His tag, E. coli BL21, Ni-NTA purified
T1 sequence (E3UVD3 1-491): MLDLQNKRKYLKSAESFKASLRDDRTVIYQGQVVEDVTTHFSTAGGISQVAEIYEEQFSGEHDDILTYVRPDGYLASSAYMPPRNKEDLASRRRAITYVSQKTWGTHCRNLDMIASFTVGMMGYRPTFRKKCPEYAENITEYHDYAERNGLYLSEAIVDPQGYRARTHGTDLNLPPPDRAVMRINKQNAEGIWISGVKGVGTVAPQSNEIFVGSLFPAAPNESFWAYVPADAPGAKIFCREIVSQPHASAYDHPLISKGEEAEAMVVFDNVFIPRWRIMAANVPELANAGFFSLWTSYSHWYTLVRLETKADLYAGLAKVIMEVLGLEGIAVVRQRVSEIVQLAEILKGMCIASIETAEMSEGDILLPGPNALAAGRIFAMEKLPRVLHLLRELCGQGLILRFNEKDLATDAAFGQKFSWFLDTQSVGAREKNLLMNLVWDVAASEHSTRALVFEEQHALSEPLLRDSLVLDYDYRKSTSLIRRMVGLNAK
Assay: HPLC detection of 2-OH-PCA and 2-OH-PHZ
Assay type: biochemical
Details: NADP(H), 1 mM Fe3+, PCA 200 mg/L, 0.1 M Tris-HCl; results call the enzyme purified, methods describe crude E. coli extract

With `O=C(O)c1cccc2nc3ccccc3nc12` [PCA, phenazine-1-carboxylic acid] as the molecule, how does the “HPLC detection of 2-OH-PCA and 2-OH-PHZ” value read?
The value was “PhzO was sufficient to hydroxylate PCA to produce 2-OH-PHZ in the presence of NADP(H)”.
